Literature values in patent publication US5691373A, “Nonpeptide endothelin antagonists I” (Warner-Lambert Company, priority 1995, dated 1997).
Read-outs that look alike come from different tables or passages of the source. Where a SMILES comes first, the peptide text is derived from it. [ ]: non-standard residue; d: D form.

Experiments:
[1] = test system: ETA; conditions: cited from earlier work
[2] = test system: endotoxic shock; conditions: cited from earlier work
[3] = test system: cerebral vasospasm; conditions: rabbit; cited from earlier work
[4] = test system: cerebral vasospasm; conditions: rat; cited from earlier work
[5] = test system: cerebral vasospasm; conditions: in vivo; cited from earlier work
[6] = test system: ET-1 induced bronchoconstriction and tracheal smooth muscle contraction; conditions: allergic sheep; cited from earlier work

Structure (SMILES) | oral antihypertensive effect [1] | survival rate [2] | early cerebral vasospasm following SAH [3] | early cerebral vasospasm following SAH [4] | early cerebral vasospasm following subarachnoid hemorrhage [5] | ET-1 induced bronchoconstriction and tracheal smooth muscle contraction [6]
Cc1noc(NS(=O)(=O)c2cccc3c(N(C)C)cccc23)c1C [5-(Dimethylemino)-N-(3,4-dimethyl-5-isoxazolyl)-1-naphthalenesulfonamide] | demonstrated an oral antihypertensive effect | – | – | – | – | –
CC(C)C[C@@H]1NC(=O)[C@@H](C(C)C)NC(=O)[C@@H]2CCCN2C(=O)[C@@H](CC(=O)O)NC(=O)[C@@H](Cc2c[nH]c3ccccc23)NC1=O [BQ-123] (cyclo(L[dW][dD]P[dV])) | – | significantly increased the survival rate | prevents early cerebral vasospasm following SAH | prevents early cerebral vasospasm following SAH | prevent early cerebral vasospasm following subarachnoid hemorrhage | block ET-1 induced bronchoconstriction and tracheal smooth muscle contraction
